# US8652518B2, “Compositions and methods for the prevention and treatment of diseases or conditions associated with oxidative stress, inflammation, and metabolic dysregulation” (priority 2012, dated 2014)
# Assays:
# [1] = tested on: thyroid nodule localized to the right side of the thyroid gland; experiment: Case 2: subject with thyroid nodule given the preferred embodiment; type: in vivo; conditions: increasing doses, before the preferred embodiment
# Description: […]
# [2] = tested on: atrophic or neovascular AMD; conditions: group with the highest dietary intake of either carotenoid; cited from earlier work
# sarcoma S-180 cells = conditions: high dose; cited from earlier work
# bFGF = conditions: mice with the highest survival rates; cited from earlier work
# VEGF = conditions: mice with the highest survival rates; cited from earlier work
# MMP2 = conditions: mice with the highest survival rates; cited from earlier work
compound,measurement,setting,value
N[C@@H](Cc1cc(I)c(Oc2cc(I)c(O)c(I)c2)c(I)c1)C(=O)O [levothyroxine sodium],effect on growth of the thyroid nodule,[1],did not seem to inhibit the growth of the nodule
CC1=C[C@H](O)CC(C)(C)[C@H]1/C=C/C(C)=C/C=C/C(C)=C/C=C/C=C(C)/C=C/C=C(C)/C=C/C1=C(C)C[C@@H](O)CC1(C)C [lutein],reduction in the risk of developing atrophic or neovascular AMD,[2],forty
"O=C1O[C@H]([C@@H](O)CO)C(O)=C1O [vitamin C, ascorbic acid]",increase of survival rate as compared to control models,sarcoma S-180 cells,20%
same,inhibition of expression of bFGF gene,bFGF,0.3 times
same,inhibition of expression of VEGF gene,VEGF,7 times
same,inhibition of expression of MMP2 gene,MMP2,4 times
CC1=C(/C=C/C(C)=C/C=C/C(C)=C/C=C/C=C(C)/C=C/C=C(C)/C=C/C2=C(C)C[C@@H](O)CC2(C)C)C(C)(C)C[C@H](O)C1 [zeaxanthin],reduction in the risk of developing atrophic or neovascular AMD,[2],forty
